Experimental data published in US6610655B2, “Pentapeptide with specific conformation, its production and use” (Takeda Chemical Industries, Inc., priority 1994, dated 2003).
Where a SMILES comes first, the peptide text is derived from it. [ ]: non-standard residue; d: D form. The star is where a group is joined. Bn = c1ccc(C*)cc1

Biological target: T1, NK2 receptor (Bos taurus, UniProt P05363)
T1 construct: membrane fraction containing the receptor was prepared from the inner wall of the bovine third stomach; tissue Kyoto Chuo Chikusan Fukuseibutsu Oroshi Kyokai; host or cells: inner wall of the bovine third stomach (membrane fraction)
T1 sequence (P05363 1-384): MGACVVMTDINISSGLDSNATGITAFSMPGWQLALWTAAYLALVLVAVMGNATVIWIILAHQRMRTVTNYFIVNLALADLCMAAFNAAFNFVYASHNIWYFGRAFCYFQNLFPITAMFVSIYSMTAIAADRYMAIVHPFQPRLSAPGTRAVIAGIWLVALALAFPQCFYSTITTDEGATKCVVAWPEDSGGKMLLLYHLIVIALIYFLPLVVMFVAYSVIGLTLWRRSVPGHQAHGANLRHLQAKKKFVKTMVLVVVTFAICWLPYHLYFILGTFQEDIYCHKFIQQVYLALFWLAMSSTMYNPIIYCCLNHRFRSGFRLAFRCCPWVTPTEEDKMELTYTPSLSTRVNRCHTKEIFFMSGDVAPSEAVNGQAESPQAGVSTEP
Experiment: Binding inhibiting activity on NK2 receptor (125I-NKA, membrane fraction of bovine third stomach)
Conditions: 125I-neurokinin A, membrane fraction from inner wall of bovine third stomach, 25° C., 3 hours
Description: The method of Paul L. M. Van Giersbergen et al. [Proc. Natl. Acad. Sci. U.S.A., 88, 1661 (1991) was modified for this assay. The membrane fraction containing the receptor was prepared from the inner wall of the bovine third stomach (purchased from Kyoto Chuo Chikusan Fukuseibutsu Oroshi Kyokai).
The inner wall of the bovine third stomach stored at −80° C. was cut to 1 cm×1 cm or less, and disrupted in 3 liters/kg of 50 mM Tris-HCl buffer (pH 7.4) supplemented with 120 mM sodium chloride, 5 mM potassium chloride, 0.02% BSA and 5% sucrose, using a polytron homogenizer (Kinematika, Germany). Then, the disrupted product was centrifuged at 1,000×g for 10 minutes. The supernatant was further centrifuged at 45,000×g for 20 minutes. The precipitate was suspended in 200 ml of 50 mM Tris-HCl buffer (pH 7.4) supplemented with 300 mM potassium chloride, 10 mM ethylenediaminetetraacetic acid, 0.1 mM […] and 0.02% BSA, and gently stirred under ice cooling for 60 minutes. The suspension was centrifuged at 45,000×g for 20 minutes. The precipitate was washed with 200 ml of 50 mM Tris-HCl buffer (pH 7.4), and stored in the frozen state at −40° C. as a receptor sample.
This sample was suspended in a reaction buffer solution [50 mM Tris-HCl buffer (pH 7.4), 0.02% bovine serum albumin and 4 mM manganese chloride] so as to give a protein concentration of 0.7 mg/ml, and 100 μl thereof was used for reaction. A test sample and ^125I-NKA (0.61 KBq, ^125I-neurokinin A, 81.4 TBq/mmol, Du Pont/NEN Research Products, U.S.A.) were also added, and reacted in 0.2 ml of the reaction buffer solution at 25° C. for 3 hours. The reaction mixture was rapidly filtered through a glass filter (GF/B, Whatman, U.S.A.) using a cell harvester (Type 290PHD, Cambridge Technology Inc., U.S.A.) to terminate the reaction, and washed 3 times with 250 μl of 50 mM Tris-HCl buffer (pH 7.4) supplemented with 0.02% bovine serum albumin. The radioactivity left on the filter was measured with a gamma-ray counter. […]

Row | Structure (SMILES) | IC50
1 | CC(C)C[C@@H]1NC(=O)[C@@H](CC(C)C)NC(=O)[C@H]([C@@H](C)OCc2ccccc2)NC(=O)[C@@H](CCC(=O)O)NC(=O)[C@@H](Cc2c[nH]c3ccccc23)NC1=O [Cyclo(-D-Glu-Thr(Bzl)-D-Leu-Leu-D-Trp-)] (cyclo([dE]T(Bn)[dL]L[dW])) | 1500 nM
2 | CC(C)C[C@@H]1NC(=O)[C@@H](CC(C)C)NC(=O)[C@H](Cc2c[nH]c3ccccc23)NC(=O)[C@@H](CC(=O)O)NC(=O)[C@@H](Cc2c[nH]c3ccccc23)NC1=O [Cyclo(-D-Asp-Trp-D-Leu-Leu-D-Trp-)] (cyclo([dD]W[dL]L[dW])) | 27 nM
3 | CC(C)C[C@@H]1NC(=O)[C@@H](CC(C)C)NC(=O)[C@H](COCc2ccccc2)NC(=O)[C@@H](CCC(=O)O)NC(=O)[C@@H](Cc2c[nH]c3ccccc23)NC1=O [Cyclo(-D-Glu-Ser(Bzl)-D-Leu-Leu-D-Trp-)] (cyclo([dE]S(Bn)[dL]L[dW])) | 580 nM
